We go through one compound from ChEMBL document CHEMBL4732064, “Structure-activity relationship studies of phenothiazine derivatives as a new class of ferroptosis inhibitors together with the therapeutic effect in an ischemic stroke model” (Eur J Med Chem, 2021).

The EC50 is the concentration at which the effect is half-maximal. The IC50 is the concentration that gives 50% inhibition.

The structures appear in SMILES notation. The source made the active and inactive calls. The rule behind the calls is not given here.

Assay [1] deals with HT-1080. Kind of assay: Increase in GSH level in erastin-induced human HT-1080 cell ferroptosis model at 0.01 to 1 uM. Type of assay: functional. To be noted: dose 0.01-1 µM.
Assay [2] is described as follows: Antioxidant activity assessed as DPPH radical scavenging activity at 0.05 mM incubated for 10 mins. Type of assay: functional. For orientation: DPPH is a stable violet radical that fades when it is reduced.
Assay [3] relates to HT-1080. In words: Inhibition of erastin-induced ferroptosis in human HT-1080 cells assessed as cell viability incubated for 48 hrs by MTT assay. Type of assay: functional, cell-based. The note with it: HT-1080, 48 h. Background: Tetrazolium dyes change colour on reduction, which living cells bring about.
In a further assay the test system is BXPC-3. In words: Inhibition of erastin-induced ferroptosis in human BXPC-3 cells assessed as cell viability incubated for 48 hrs by MTT assay. Type of assay: functional, cell-based. To be noted: BXPC-3, 48 h.
The target in assay [4] is D(2) dopamine receptor (Homo sapiens) (UniProt P14416). In words: Antagonist activity at DRD2L (unknown origin) by FLIPR assay.
Chain of D(2) dopamine receptor (Homo sapiens) (P14416 whole entry): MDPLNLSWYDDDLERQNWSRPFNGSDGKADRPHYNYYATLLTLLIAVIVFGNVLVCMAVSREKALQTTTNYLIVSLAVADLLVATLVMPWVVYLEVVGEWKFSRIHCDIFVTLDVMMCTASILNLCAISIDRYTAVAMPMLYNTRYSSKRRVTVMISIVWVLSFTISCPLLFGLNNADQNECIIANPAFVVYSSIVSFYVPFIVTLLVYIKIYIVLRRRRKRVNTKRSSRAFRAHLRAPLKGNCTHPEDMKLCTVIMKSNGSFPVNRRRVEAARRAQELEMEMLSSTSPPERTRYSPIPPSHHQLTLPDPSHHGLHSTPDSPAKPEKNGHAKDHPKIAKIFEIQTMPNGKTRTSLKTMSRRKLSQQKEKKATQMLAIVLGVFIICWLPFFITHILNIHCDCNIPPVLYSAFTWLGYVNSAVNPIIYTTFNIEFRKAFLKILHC
Assay [5] concerns the target T1, Alpha-1A adrenergic receptor (Homo sapiens) (UniProt P35348).
T1 sequence (whole entry): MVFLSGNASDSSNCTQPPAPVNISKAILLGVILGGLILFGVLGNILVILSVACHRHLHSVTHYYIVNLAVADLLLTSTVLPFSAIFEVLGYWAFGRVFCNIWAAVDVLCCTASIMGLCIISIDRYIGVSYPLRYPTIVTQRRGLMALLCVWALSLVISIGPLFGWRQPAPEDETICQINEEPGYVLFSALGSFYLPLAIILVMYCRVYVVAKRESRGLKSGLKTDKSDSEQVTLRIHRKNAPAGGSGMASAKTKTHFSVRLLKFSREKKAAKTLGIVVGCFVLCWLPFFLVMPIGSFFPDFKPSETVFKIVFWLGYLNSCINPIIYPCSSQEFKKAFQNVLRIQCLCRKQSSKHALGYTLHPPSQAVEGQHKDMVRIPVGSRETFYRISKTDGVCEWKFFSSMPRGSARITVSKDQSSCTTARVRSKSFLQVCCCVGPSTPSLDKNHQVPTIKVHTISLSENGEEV
In words: Antagonist activity at ADRA1A (unknown origin) by FLIPR assay.

Assay [6] concerns the target 5-hydroxytryptamine receptor 2A (Homo sapiens) (UniProt P28223). In words: Antagonist activity at HTR2A (unknown origin) by FLIPR assay.
For assay [7], the target named is T2, 5-hydroxytryptamine receptor 2C (Homo sapiens) (UniProt P28335).
T2 sequence (whole entry): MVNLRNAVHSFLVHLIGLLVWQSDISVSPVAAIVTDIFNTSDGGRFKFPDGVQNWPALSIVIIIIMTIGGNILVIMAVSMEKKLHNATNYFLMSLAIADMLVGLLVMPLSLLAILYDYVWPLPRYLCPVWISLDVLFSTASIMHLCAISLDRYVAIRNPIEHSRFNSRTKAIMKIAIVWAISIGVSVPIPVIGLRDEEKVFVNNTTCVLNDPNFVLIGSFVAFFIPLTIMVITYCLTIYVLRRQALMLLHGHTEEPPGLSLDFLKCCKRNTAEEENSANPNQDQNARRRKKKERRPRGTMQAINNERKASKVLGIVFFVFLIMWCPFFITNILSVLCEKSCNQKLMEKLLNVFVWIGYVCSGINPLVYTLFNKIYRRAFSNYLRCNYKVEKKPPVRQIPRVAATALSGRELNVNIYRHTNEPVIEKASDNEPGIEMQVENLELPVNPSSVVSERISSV
In words: Antagonist activity at HTR2C (unknown origin) by FLIPR assay.

The target of assay [8] is Muscarinic acetylcholine receptor M3 (Homo sapiens) (UniProt P20309). Kind of assay: Antagonist activity at CHRM3 (unknown origin) by FLIPR assay.
Chain of Muscarinic acetylcholine receptor M3 (Homo sapiens) (P20309 whole entry, looked up): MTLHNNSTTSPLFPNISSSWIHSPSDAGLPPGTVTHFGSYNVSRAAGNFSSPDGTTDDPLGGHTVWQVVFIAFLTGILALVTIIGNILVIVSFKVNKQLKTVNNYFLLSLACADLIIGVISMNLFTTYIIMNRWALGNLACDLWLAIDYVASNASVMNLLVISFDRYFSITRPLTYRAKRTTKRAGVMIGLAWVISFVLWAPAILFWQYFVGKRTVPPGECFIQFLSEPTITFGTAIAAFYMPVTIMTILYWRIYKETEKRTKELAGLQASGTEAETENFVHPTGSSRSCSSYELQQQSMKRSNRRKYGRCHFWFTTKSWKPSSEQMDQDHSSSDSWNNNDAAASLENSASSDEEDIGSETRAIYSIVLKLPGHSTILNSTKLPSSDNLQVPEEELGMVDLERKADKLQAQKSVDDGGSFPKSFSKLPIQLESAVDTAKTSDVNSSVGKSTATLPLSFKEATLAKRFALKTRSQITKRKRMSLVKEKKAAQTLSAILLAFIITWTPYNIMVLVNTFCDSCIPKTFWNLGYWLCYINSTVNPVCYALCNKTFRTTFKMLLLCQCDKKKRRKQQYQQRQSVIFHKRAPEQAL
The target of assay [9] is Histamine H1 receptor (Homo sapiens) (UniProt P35367). In words: Antagonist activity at H1 (unknown origin) by FLIPR assay.
Chain of Histamine H1 receptor (Homo sapiens) (P35367 whole entry): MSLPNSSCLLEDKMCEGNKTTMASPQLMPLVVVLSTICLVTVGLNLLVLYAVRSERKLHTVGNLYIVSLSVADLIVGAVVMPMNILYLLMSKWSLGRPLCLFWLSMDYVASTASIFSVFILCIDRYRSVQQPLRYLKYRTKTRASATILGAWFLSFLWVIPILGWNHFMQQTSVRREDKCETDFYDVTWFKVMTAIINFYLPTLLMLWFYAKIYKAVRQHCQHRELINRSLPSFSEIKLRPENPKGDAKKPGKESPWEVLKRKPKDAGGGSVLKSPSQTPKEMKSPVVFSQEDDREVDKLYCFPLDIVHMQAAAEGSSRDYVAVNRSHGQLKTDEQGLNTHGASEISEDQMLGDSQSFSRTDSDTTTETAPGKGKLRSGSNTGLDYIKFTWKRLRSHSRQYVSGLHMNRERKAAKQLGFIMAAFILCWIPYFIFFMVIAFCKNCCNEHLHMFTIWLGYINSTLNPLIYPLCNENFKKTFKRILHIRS
In assay [10] the test system is HT-1080. In words: Downregulation of GPX4 expression in erastin-induced human HT-1080 cell ferroptosis model at 0.01 to 1 uM after 10 hrs by Western blot analysis. Type of assay: functional. To be noted: dose 0.01-1 µM. For orientation: A western blot detects proteins with antibodies after separation by electrophoresis.
The test system of assay [11] is HT-1080. In words: Downregulation of GPX4 expression in erastin-induced human HT-1080 cell ferroptosis model at 1 uM after 10 hrs by Western blot analysis. Type of assay: functional.
Assay [12] concerns HT-1080. In words: Inhibition of ERK expression in erastin-induced human HT-1080 cell ferroptosis model at 0.01 to 1 uM after 10 hrs by Western blot analysis. To be noted: dose 0.01-1 µM. Type of assay: functional.
Assay [13] concerns HT-1080. Kind of assay: Reduction in lipid oxidation level in erastin-induced human HT-1080 cell ferroptosis model assessed as decrease in MDA accumulation at 0.01 to 1 uM. Type of assay: functional. The note with it: dose 0.01-1 µM.
Assay [14] has as its system HT-1080. Kind of assay: Antioxidant activity in erastin-induced human HT-1080 cell ferroptosis model assessed as decrease in cytosolic ROS accumulation at 0.01 to 1 uM incubated for 8 to 24 hrs by DCFH-DA staining based assay. The note with it: dose 0.01-1 µM, time 8-24 hrs. Type of assay: functional.
The subject of the next assay is Calu-1. In words: Antioxidant activity in erastin-induced human Calu-1 cell ferroptosis model assessed as decrease in cytosolic ROS accumulation at 0.01 to 1 uM incubated for 8 to 24 hrs by DCFH-DA staining based assay. Type of assay: functional. The note with it: dose 0.01-1 µM, time 8-24 hrs.
Assay [15] concerns HT-1080. In words: Antioxidant activity in erastin-induced human HT-1080 cell ferroptosis model assessed as decrease in lipid ROS accumulation at 0.01 to 1 uM incubated for 8 to 24 hrs by BODIPY 581/591 C11 staining based flow cytometric analysis. The note with it: dose 0.01-1 µM, time 8-24 hrs. Type of assay: functional.
Assay [16] concerns HT-1080. In words: Inhibition of rotenone-induced oxidative cell death in human HT-1080 cells at 10 uM incubated for 24 hrs. Type of assay: functional, cell-based.
A short description of assay [17]: Metal chelating activity assessed as iron chelation.
In assay [18] the test system is Rattus norvegicus. In words: Protective activity in Sprague-Dawley rat model of middle cerebral artery occlusion-induced ischemia-reperfusion injury assessed as decrease in cerebral infarction volume at 5 mg/kg, iv measured after 24 hrs of post reperfusion by TTC staining based assay. Type of assay: functional, organism-based.
Assay [19] relates to Rattus norvegicus. Kind of assay: Protective activity in Sprague-Dawley rat model of middle cerebral artery occlusion-induced ischemia-reperfusion injury assessed as reduction in neurological score at 5 mg/kg, iv measured after 24 hrs of post reperfusion […]. Type of assay: functional, organism-based.
Assay [20] deals with Rattus norvegicus. In words: Protective activity in Sprague-Dawley rat model of middle cerebral artery occlusion-induced ischemia-reperfusion injury assessed as increase in GSH level at 5 mg/kg, iv measured after 24 hrs of post reperfusion […]. Type of assay: functional, organism-based.
The target of assay [21] is T3, Histone acetyltransferase type B catalytic subunit (Homo sapiens, UniProt O14929).
T3 sequence (O14929 whole entry): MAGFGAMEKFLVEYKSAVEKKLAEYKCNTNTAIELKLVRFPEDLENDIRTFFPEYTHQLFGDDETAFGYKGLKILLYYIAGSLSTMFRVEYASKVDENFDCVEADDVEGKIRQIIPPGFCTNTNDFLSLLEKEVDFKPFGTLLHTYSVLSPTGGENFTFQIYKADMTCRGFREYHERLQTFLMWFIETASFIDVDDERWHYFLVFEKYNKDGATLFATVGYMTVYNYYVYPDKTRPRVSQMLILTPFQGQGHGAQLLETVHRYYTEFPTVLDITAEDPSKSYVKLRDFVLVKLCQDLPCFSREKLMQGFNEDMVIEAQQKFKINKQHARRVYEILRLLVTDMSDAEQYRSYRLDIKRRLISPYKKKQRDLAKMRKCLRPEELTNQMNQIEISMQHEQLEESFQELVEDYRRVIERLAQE
In words: Inhibition of HAT1 (unknown origin).

Chain of 5-hydroxytryptamine receptor 2A (Homo sapiens) (P28223 whole entry): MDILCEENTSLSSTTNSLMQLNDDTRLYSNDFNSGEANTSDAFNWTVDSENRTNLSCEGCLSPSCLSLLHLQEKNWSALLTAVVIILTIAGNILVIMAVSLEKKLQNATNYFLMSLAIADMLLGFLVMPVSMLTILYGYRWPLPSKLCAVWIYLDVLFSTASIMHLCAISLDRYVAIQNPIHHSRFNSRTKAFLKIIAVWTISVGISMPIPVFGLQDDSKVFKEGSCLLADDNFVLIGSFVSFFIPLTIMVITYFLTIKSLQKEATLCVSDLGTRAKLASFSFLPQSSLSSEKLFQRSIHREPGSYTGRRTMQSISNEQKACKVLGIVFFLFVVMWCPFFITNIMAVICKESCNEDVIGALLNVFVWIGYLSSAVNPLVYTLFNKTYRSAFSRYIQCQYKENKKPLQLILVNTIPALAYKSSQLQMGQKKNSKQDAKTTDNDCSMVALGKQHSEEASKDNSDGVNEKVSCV

Take `CC(c1ccc(N2CCN(C)CC2)cc1)c1ccc2c(c1)Nc1ccccc1S2` (stereo not drawn): the outcome (in the assay on HT-1080 [1]; in assay [2]; with HT-1080 [13]; with HT-1080 [14]; in the assay with Calu-1; with HT-1080 [15]) was Active. In addition, the result with Rattus norvegicus [18], in the assay with Rattus norvegicus [19] and in the assay on Rattus norvegicus [20] was Active. The EC50 was 0.5 nM in the assay with HT-1080 [3] and 2.92 nM in the assay with BXPC-3. Further, the result in assay [4], in [5], in [6], in assay [7], in assay [8] and in assay [9] was inactive. Also, the outcome (in the assay with HT-1080 [10]; with HT-1080 [11]; in assay [17]) was inactive. Also, the inhibition entry in the assay with HT-1080 [12] and in the assay with HT-1080 [16] was “inactive” throughout. In addition, the IC50 in [21] is above 10000 nM.
